Legend:
[1] = logP determination by HPLC (EEC Directive 79/831 Annex V.A8), reversed-phase column C 18; assay type: physicochemical
Method: The logP values given in Table 1 were determined in accordance with EEC Directive 79/831 Annex V.A8 by HPLC (High Performance Liquid Chromatography) using a reversed-phase column (C 18). Temperature: 43° C.
(a) Mobile phases for the determination in the acidic range: 0.1% aqeuous phosphoric acid, acetonitrile; linear gradient from 10% acetonitrile to 90% acetonitrile—the corresponding test results in Table 1 are labelled^a).
(b) Mobile phases for the determination in the neutral range: 0.01 molar aqueous phosphate buffer solution, acetonitrile; linear gradient from 10% acetonitrile to 90% acetonitrile—the corresponding test results in Table 1 are labelled^b).
Calibration was carried out using unbranched alkan-2-ones (having 3 to 16 carbon atoms) with known logP values (determination of the logP values by the retention times using linear interpolation between two successive alkanones).

[2] = reversed-phase HPLC column (C 18); a) acidic range: 0.1% aqueous phosphoric acid/acetonitrile gradient, 43° C.

Compound: COC(=O)c1cc(=O)n(-c2cc(Oc3ccc4cc(OC)ccc4c3)c(C#N)cc2F)c(=O)n1C [Example 33, methyl I-[4-cyano-2-fluoro-5-(6-methoxy-naphthalen-2-yl-oxy)-phenyl]-2,6-dioxo-3-methyl-1,2,3,6-tetrahydro-pyrimidine-4-carboxylate]
- chromatographic logP [1, 2]: 3.22

Compound: N#Cc1cc(F)c(-n2c(=O)cc(C(F)(F)F)[nH]c2=O)cc1Oc1cccc2c(O)cccc12
- melting point: 168 °C

Compound: COc1ccc2cc(Oc3cc(-n4c(=O)cc(C(N)=O)n(C)c4=O)c(F)cc3C#N)ccc2c1 [Example 35, 1-[4-cyano-2-fluoro-5-(6-methoxy-naphthalen-2-yl-oxy)-phenyl]-2,6-dioxo-3-methyl-1,2,3,6-tetrahydro-pyrimidine4-carboxamide]
- chromatographic logP [1, 2]: 2.06

Compound: COc1cccc2c(Oc3cc(-n4c(=O)cc(C(F)(F)F)n(C)c4=O)c(F)cc3C#N)cccc12
- melting point: 109 °C

Compound: CCOC(=O)C(C)Oc1ccc2ccc(Oc3cc(-n4c(=O)cc(C(F)(F)F)n(C)c4=O)c(F)cc3C#N)cc2c1 (racemic)
- melting point: 133 °C

Compound: Cn1c(C(F)(F)F)cc(=O)n(-c2cc(Oc3ccc4cc(O)ccc4c3)c(C#N)cc2F)c1=O
- melting point: 174 °C

Compound: COc1ccc2cc(Oc3cc(-n4c(=O)cc(C(=O)O)[nH]c4=O)c(F)cc3C#N)ccc2c1 [Example 31, 1-[4-cyano-2-fluoro-5-(6-methoxy-naphthalen-2-yl-oxy)-phenyl]-2,6-dioxo-1,2,3,6-tetrahydro-pyrimidine-4-carboxylic acid]
- chromatographic logP [1, 2]: 2.11

Compound: N#Cc1cc(F)c(-n2c(=O)cc(C(F)(F)F)[nH]c2=O)cc1Oc1ccc2ccccc2c1
- melting point: 92 °C

Compound: CCOC(=O)[C@@H](C)Oc1ccc2cc(Oc3cc(-n4c(=O)cc(C(F)(F)F)n(C)c4=O)c(F)cc3C#N)ccc2c1 [Example 6, ethyl (R)-2-[6-(2-cyano-4-fluoro-5-[3-methyl-2,6-dioxo-4-trifluoromethyl-3,6-dihydro-1(2H)-pyrimidinyl]-phenoxy)-2-naphthyl-oxy]-propanoate]
- chromatographic logP ([1]; reversed-phase HPLC column (C 18), at pH 2.3): 3.99

Compound: CCOC(=O)NC1=CC(=O)N(c2cc(Oc3ccc4cc(OC)ccc4c3)c(C#N)cc2F)C1=O [Example (VII-1), ethyl [1-(4-cyano-2-fluoro-5-(6-methoxy-naphthalen-2-yl-oxy)-phenyl)-2,5-dioxo-2,5-dihydro-1H-pyrrol-3-yl]-carbamate]
- chromatographic logP ([1]; mobile-phase label not given): 3.63
